Test results taken from publication PMC10354012, “Cloxyquin activates hTRESK by allosteric modulation of the selectivity filter” (Communications Biology, 2023).

Molecular target: T1, hTRESK (TWIK-related spinal cord K+ channel, K2P18.1) (Homo sapiens, UniProt Q7Z418)
T1 construct: gene KCNK18; homodimeric hTRESK WT expressed in Xenopus laevis oocytes
T1 sequence (Q7Z418 1-384): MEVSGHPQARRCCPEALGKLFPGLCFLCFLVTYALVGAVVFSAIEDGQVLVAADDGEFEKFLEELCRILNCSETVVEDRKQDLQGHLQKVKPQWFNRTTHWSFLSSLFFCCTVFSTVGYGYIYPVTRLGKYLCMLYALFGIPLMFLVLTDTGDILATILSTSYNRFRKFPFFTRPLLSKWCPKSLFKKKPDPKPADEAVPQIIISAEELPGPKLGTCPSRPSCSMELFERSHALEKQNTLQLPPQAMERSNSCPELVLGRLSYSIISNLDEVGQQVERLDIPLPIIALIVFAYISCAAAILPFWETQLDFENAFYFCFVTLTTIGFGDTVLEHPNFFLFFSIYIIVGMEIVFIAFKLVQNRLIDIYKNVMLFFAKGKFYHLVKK
Test: TEVC dose-response in Xenopus oocytes, supported by alanine scan
Format: cell-based

## Oc1ccc(Cl)c2cccnc12 [clx, 5-chloro-8-hydroxyquinoline]
  EC50: 64 ± 11 µM
